The values below come from article PMC12040169 (PLOS Biology, 2025).

A word on the viability: it is a read-out of living cells in per cent, often relative to untreated cells.

A short description of the data set: in vitro. The settings on record: human, hela cells, % viability.

The structures appear in SMILES notation.

For the compound `O=C(c1cccs1)N1C[C@@H]2C[C@H](C1)c1c(-c3cncnc3)ccc(=O)n1C2` [CBK289194], the viability at 28.5 h, 10 µM was found to be 90.7%. On to `C#CCOc1cccc2oc(CCC)cc(=O)c12` [CBK005628], for which the viability at 28.5 h, 10 µM turned out to be 87.6%. On to `Cc1ccc(O)c(NC(=O)c2nc3nc(C)cc(C(F)F)n3n2)c1` [CBK266186], for which the viability at 28.5 h, 10 µM came to 99.6%. Still for that read-out and setting: as for `N#Cc1ccc(CN2CCCN(S(=O)(=O)c3ccc(C(F)(F)F)cc3Cl)CC2)cc1` [CBK062939], the figure is 98%; as for `COc1ccccc1CC(=O)N1CCC(Cc2ccc(-c3ccccc3)cc2)(C(N)=O)CC1` [CBK285777], 95.4%; as for `O=C(O)c1ccc(COc2ccccc2/C=N/O)cc1` [CBK288481], 108%. Same read-out and setting: as for `CCN(CC)CC(c1ccccc1)C(O)c1ccc(OC)cc1` (stereo not drawn) [CBK262074C], the figure is 88.8%; as for `Cc1cc(Br)ccc1OCC(=O)O/N=C(\N)Cc1ccc([N+](=O)[O-])cc1` [CBK265095], 99.8%.

With `CN1CCCN(c2cc(C(F)(F)F)c3scc(C(=O)NCc4cccc(F)c4F)c3n2)CC1` [CBK036386T], the viability at 28.5 h, 10 µM amounted to 87.9%. On the same count and under the same terms, for `COc1cccc(C2CC(=O)Nc3c2c(=O)nc(SC)n3C)c1` (stereo not drawn) [CBK307546] the value was 104%. As to `CC(Oc1cccc(Cl)c1)C(=O)NCc1ccc(S(N)(=O)=O)cc1` (stereo not drawn) [CBK265477], the viability at 28.5 h, 10 µM stood at 97%. Take `Cc1ccc(Cl)c(OCc2nnc(SCC(=O)O)n2N)c1` [CBK268992]: the viability at 28.5 h, 10 µM came to 105%. On to `Cc1ccc(C)c(C2CCCN2C(=O)C2CN(C(=O)C3CCN(C)CC3)C2)c1` (stereo not drawn) [CBK286022], for which the viability at 28.5 h, 10 µM was found to be 97.5%. On to `CN1CCC(N2CCN(C(=O)NCc3ccc4c(c3)OCO4)CC2)CC1` [CBK155885], for which the viability at 28.5 h, 10 µM amounted to 88.3%.

As to `CCOC(=O)c1c(NC(=O)CCN2CCCCC2)sc2c1CCCCC2` [CBK265319G], the viability at 28.5 h, 10 µM stood at 89.9%. Consider `COc1cc2nc(NC(=O)C3COc4ccccc4O3)sc2cc1OC` (stereo not drawn) [CBK287702], for which the viability at 28.5 h, 10 µM was found to be 109%.

With `CN(C)CCN(C)c1cncc(-c2ccc3ccccc3c2)n1` [CBK037146], the viability at 28.5 h, 10 µM was 77.7%. Still for that read-out and setting: for `O=C1OC(c2ccccc2)=C/C1=C1/C(=O)Nc2ccccc21` [CBK115375] the value was 102%; for `CC(=O)Cc1ccccc1OCC(=O)O` [CBK261031], 90.9%; for `Cc1ccn(CCNCc2cc(-c3ccc(Cl)cc3)c[nH]c2=O)n1` [CBK284727], 88.4%. `Cc1nc(C)n(C(C)CNC(=O)Cn2ccc3ccc(F)cc32)n1` (stereo not drawn) [CBK282612]: the viability at 28.5 h, 10 µM was found to be 95.5%. In the case of `COc1ccc(C(=O)Nc2cc(C)nn2-c2nc3ccccc3s2)cc1` [CBK287841], the viability at 28.5 h, 10 µM came to 89.8%. For `O=C(Cn1cnc(-c2nccs2)n1)N1CCCCCC1` [CBK306165], the viability at 28.5 h, 10 µM was determined as 97.5%.

Regarding `O=C(O)C(CCO)Sc1nnc(Nc2ccc(Oc3ccccc3)cc2)s1` (stereo not drawn) [CBK296631], the viability at 28.5 h, 10 µM amounted to 85.7%.

For the compound `COc1ccccc1-c1cnc(N)c(NC2CCOCC2)n1` [CBK063853], the viability at 28.5 h, 10 µM is 104%. On to `CSc1ncc(CNCc2ccc3c(c2)OCO3)c(N)n1` [CBK074563], for which the viability at 28.5 h, 10 µM came out at 89.6%. For the compound `COc1ccc(C(=O)NCC(=O)Nc2ccc(N3CCCCC3)cc2)cc1OC` [CBK295199], the viability at 28.5 h, 10 µM is 94.3%.

On to `COC(=O)c1ccc(/C=N/NC(=O)CCc2c(C)n[nH]c2C)cc1` [CBK262904], for which the viability at 28.5 h, 10 µM worked out at 117%. Consider `O=[N+]([O-])c1ccc(CN2CCN(c3nccnc3OCC3COc4ccccc4O3)CC2)cc1` (stereo not drawn) [CBK082791T], for which the viability at 28.5 h, 10 µM amounted to 107%.

Turning to `COc1cc2c(=O)n(C)c3nncn3c2cc1OC` [CBK288182], the viability at 28.5 h, 10 µM amounted to 98.1%. Regarding `CCCC(=O)C1(c2ccccc2)CCNCC1` [CBK022936C], the viability at 28.5 h, 10 µM (bulk resorufin, single well) worked out at 89.3%. Turning to `O=C(NCc1ccsc1)N1CCCN(Cc2ccc(Cl)cc2)CC1` [CBK305450], the viability at 28.5 h, 10 µM stood at 86.4%. Same read-out and setting: for `CC(C)C(=O)NCCN1CCOCC1` [CBK034322] the value was 115%. Still for that read-out and setting: for `Cc1ccc2c(c1)OC1(CCN(C(=O)c3c(-c4ccccc4)nc4ccccn34)CC1)CC2=O` [CBK167871] the value was 92.9%.

Regarding `O=C(O)C1CC=CCC1C(=O)Nc1ccc(CN2CCOCC2)cc1` (stereo not drawn) [CBK299786], the viability at 28.5 h, 10 µM stood at 107%.

With `Cc1noc(C)c1CN1CCC(C(O)c2ccccc2)CC1` (stereo not drawn) [CBK305783], the viability at 28.5 h, 10 µM was determined as 93.9%. As for `COC(=O)c1cc(Cl)c2ccccc2n1` [CBK012428], the viability at 28.5 h, 10 µM was determined as 80.4%.

Consider `COC(=O)Cn1c(-c2ccc(OC)cc2)cc2cccnc21` [CBK282268], for which the viability at 28.5 h, 10 µM is 82.7%.

For `CCN1CCN(Cc2nc3c([nH]2)c(=O)n(C)c(=O)n3C)CC1` [CBK269413], the viability at 28.5 h, 10 µM came out at 90.5%. As for `Cc1cc2ccccc2n2c(=O)n(CC(=O)N3CCCCC3C)nc12` (stereo not drawn) [CBK283882], the viability at 28.5 h, 10 µM came to 87.1%. As to `Cc1ccc(Cl)c(OC(C)C(=O)N2CCCC(C(N)=O)C2)c1` (stereo not drawn) [CBK304936], the viability at 28.5 h, 10 µM came to 99.3%.

As to `Cc1ccc(NS(=O)(=O)c2cccc(C(=O)NS(=O)(=O)c3ccc(F)cc3F)c2)cc1` [CBK297776], the viability at 28.5 h, 10 µM turned out to be 70.5%.

Consider `Cc1ccc(NC(=O)c2ccccc2)s1` [CBK086724], for which the viability at 28.5 h, 10 µM was found to be 95.2%. With `Cc1cc(-c2cnoc2C2CCCN(C(=O)c3cccs3)C2)on1` (stereo not drawn) [CBK284480], the viability at 28.5 h, 10 µM was determined as 102%. Regarding `NS(=O)(=O)c1cccc2c1CC1(CC2)OCCO1` [CBK010703], the viability at 28.5 h, 10 µM stood at 84.6%.

With `Cc1ccc2nc(-c3ccc(/N=C/c4ccc(/C=N/c5ccc(-c6nc7ccc(C)cc7s6)cc5)cc4)cc3)sc2c1` [CBK261661], the viability at 28.5 h, 10 µM came out at 87.1%. For `O=c1[nH]nc2ccc(S(=O)(=O)N3CCCCC3)cn12` [CBK288459], the viability at 28.5 h, 10 µM came out at 89.5%.

`O=C(Nc1ccno1)Nc1ccc(Cl)cc1Cl` [CBK057809]: the viability at 28.5 h, 10 µM is 94.6%. `COc1ccc(-c2nc(-c3cccc(F)c3)cnc2N)cc1OC` [CBK063948]: the viability at 28.5 h, 10 µM worked out at 98.4%. Regarding `COc1cc(NC(=O)C(C)Oc2ccc(Cl)cc2C)c(C(=O)O)cc1OC` (stereo not drawn) [CBK266430], the viability at 28.5 h, 10 µM stood at 86%.

`COc1ccc(NC(=O)CC2NC(=O)NC2=O)cc1` (stereo not drawn) [CBK267279]: the viability at 28.5 h, 10 µM amounted to 86.5%.

Consider `COc1cc(CNCC2CCCO2)cc(Cl)c1OCC(N)=O` (stereo not drawn) [CBK270238C], for which the viability at 28.5 h, 10 µM came to 88.4%. For the compound `COc1ccc(O)c(C(=O)c2cnn(C(=O)c3ccc(C)cc3)c2)c1` [CBK297546], the viability at 28.5 h, 10 µM turned out to be 86.3%. On to `Cc1oc2ccccc2c1CN(CCN(C)C)Cc1ccncc1` [CBK283097], for which the viability at 28.5 h, 10 µM worked out at 87.8%. For the compound `O=C(Cc1csc2ccccc12)Nc1cnc(-c2ccc(F)cc2)c(-c2ccoc2)n1` [CBK037102], the viability at 28.5 h, 10 µM was 93.3%. `O=C1CSC(c2cccnc2)N1CCc1ccccn1` (stereo not drawn) [CBK017292]: the viability at 28.5 h, 10 µM was 96.7%. On to `COC(=O)c1ccc(-n2cc(-c3cccc(C(F)(F)F)c3)nn2)cc1` [CBK112936], for which the viability at 28.5 h, 10 µM turned out to be 90%. For the compound `CCN(CC)c1nc2n(c(=O)n1)CCN2CC` [CBK027342], the viability at 28.5 h, 10 µM is 94.9%. Turning to `CN(C)C(=O)c1ccc(-c2ncc(OCCN3CCCC3=O)nc2N)cc1` [CBK145184], the viability at 28.5 h, 10 µM came to 97.5%. Consider `Fc1ccccc1C1CCN(c2cncc(N3CCNCC3)n2)CC1` [CBK172236G], for which the viability at 28.5 h, 10 µM stood at 122%. In the case of `Cc1nc(CCCn2cnc3nccnc3c2=O)sc1C` [CBK306962], the viability at 28.5 h, 10 µM was 103%.

With `COC(=O)c1ccsc1NS(=O)(=O)c1ccc(F)cc1` [CBK039060], the viability at 28.5 h, 10 µM turned out to be 89.7%. Take `CCCC(=O)Nc1ccc(OCc2ncc(C(C)(C)C)o2)c(C(C)=O)c1` [CBK305218]: the viability at 28.5 h, 10 µM turned out to be 86.2%. For `COC(=O)c1ccccc1NC(=O)CNS(=O)(=O)c1ccc(C)cc1` [CBK266000], the viability at 28.5 h, 10 µM is 94.7%. As for `Cc1ccccc1Nc1nc(N)nc(CN2CCOC3CCCC32)n1` (stereo not drawn) [CBK305181], the viability at 28.5 h, 10 µM turned out to be 97.6%. With `COc1ccc([C@H]2CN(C(=O)c3ccccn3)[C@@H]3CCCN(C(C)=O)[C@H]23)cc1` [CBK285523], the viability at 28.5 h, 10 µM amounted to 91.4%.

Regarding `CC(C)CCCC(=O)n1ccn(CCCOc2ccccc2)c1=O` [CBK106561], the viability at 28.5 h, 10 µM was 101%. The same measure, in the same setting: as for `Nc1ncnc(NCCCn2ccnc2)c1[N+](=O)[O-]` [CBK267312], the figure is 93.5%. As for `N#CC1(c2ccccc2)CCN(C(=O)c2ccc3c(c2)no[n+]3[O-])CC1` [CBK091405], the viability at 28.5 h, 10 µM (bulk resorufin, single well) was found to be 92.2%. For the compound `O=C1NCCN1C1CCN(c2ncnc3ccccc23)CC1` [CBK304896], the viability at 28.5 h, 10 µM worked out at 83.1%. Take `O=C(CSc1nnc2scc(-c3ccccc3)n12)Nc1nsc(-c2ccccc2)n1` [CBK265672]: the viability at 28.5 h, 10 µM came out at 103%. Take `Cc1cc(=O)[nH]c(SCc2nc3ccccn3c2Br)n1` [CBK296063]: the viability at 28.5 h, 10 µM turned out to be 121%. On the same count and under the same terms, for `Cc1ccccc1C(=O)N1CCC(O)(Cn2ccnc2C)CC1` [CBK284950] the value was 105%; for `CN(C)S(=O)(=O)N(CC(=O)NCc1ccncc1)c1ccccc1` [CBK268322], 111%. Still for that read-out and setting: as for `O=C(CN1CCCCC1)NN(Cc1ccccc1)c1ccccc1` [CBK261521G], the figure is 103%. With `Cc1ccc(S(=O)(=O)NC(C)(C)C(=O)O)cc1` [CBK263840], the viability at 28.5 h, 10 µM was determined as 88.8%.

For the compound `c1ccc(CSc2nnc(COc3cccc4ccccc34)n2Cc2ccccc2)cc1` [CBK267215], the viability at 28.5 h, 10 µM was determined as 116%.

`CC1CC(=O)c2cnc(Nc3ccccc3)nc2C1` (stereo not drawn) [CBK287884]: the viability at 28.5 h, 10 µM came to 92.4%. `COCc1cn([C@H]2CO[C@H]3[C@@H]2OC[C@@H]3NC(=O)c2ccc(OC)cc2)nn1` [CBK289494]: the viability at 28.5 h, 10 µM was found to be 115%. Still for that read-out and setting: for `COc1ccccc1-c1nccnc1OCc1cccc(OC)c1OC` [CBK106825] the value was 81.2%; for `COc1cc(C)nc(NC(=O)Nc2cccc(Cl)c2)n1` [CBK269828], 94.2%.
